From article PMC4828713, “New potential binding determinant for hERG channel inhibitors” (Scientific Reports, 2016)

Key:
[1] = target: Y652A-hERG (Homo sapiens, UniProt Q12809, Y652A); conditions: pH 7.4
Excerpt: (§1) For hERG measurements, the oocytes were clamped at a holding potential of −100 mV and depolarized to +20 mV allowing activation and inactivation. […] Channel block was estimated from tail current inhibition.

[2] = target: wild type hERG (WT) channels (Homo sapiens, UniProt Q12809); conditions: pH 7.4
Excerpt: as §1

## O=C(CCCN1CCC(O)(c2ccc(Cl)cc2)CC1)c1ccc(F)cc1 [Haloperidol, haloperidol]
[1]
  Y652A-hERG nH (hill coefficient): 1 ± 0.04
  Y652A-hERG ∆IC50: 31.4
[2]
  WT nH (hill coefficient): 1.3 ± 0.1
